This test relates to mesenchymal stem cells. The test can be described thus: Sandwich ELISA of cTnT after ex vivo differentiation of rat MSCs by PTK inhibitor treatment. Format: cell-based. Conditions: rat MSCs cultured 9 days with 1 μM or 10 μM compound. The procedure: For the second subculture, MSCs were dispensed on a 60 mm plate at 2×10^5 cells/ml using the identical medium as above, treated with N-(3-bromophenyl)-6,7-diethoxyquinazoline-4-amine (Sigma), a protein tyrosine kinase (PTK) inhibitor, at a final concentration of 1 μM or 10 μM. The cells were cultured for 9 days, wherein the medium was replaced once every three days with a fresh medium containing the aforementioned compound.
100 ng of capture antibodies were bound to polyvinyl chloride (PVC) and microtiter high-binding plate (96 wells) at 4° C. overnight. The plate was washed twice with PBS, capture antibodies were blocked with PBS containing 5% BSA overnight under moist air at the room temperature. The plate was washed twice with PBS, and 5 ug of cell lysates together with blocking buffer was added to each well. The plate was incubated at 37° C. for 1.5 hours. The plate was washed 4 times with PBS containing 0.02% Tween-20. Upon adding detector antibodies, the plate was incubated under moist air and the room temperature for 2 hours, and washed 4 times with PBS containing 0.02% Tween-20. […] After 10 minutes, the reaction was stopped by adding 25 ul of 0.1M H2SO4, then the absorbance at 450 nm was immediately measured with an ELISA plate reader (Bio-Rad). […]
For orientation: An ELISA detects its analyte on a solid surface through an enzyme-linked reagent.

As for `CCOc1cc2ncnc(Nc3cccc(Br)c3)c2cc1OCC` [compound #23, N-(3-bromophenyl)-6,7-diethoxyquinazoline-4-amine], the “differentiation into myocardial cells (sandwich ELISA, FIG. 13)” value was “increases depending on the concentration”. The “expression ratio of cardiac troponin T (cTnT)” value (sandwich ELISA, FIG. 13) is reported as “increasing expression ratio of cardiac troponin T (cTnT) by the method dependent on dosage”.

These data come from patent publication US20130164847A1, “USE OF A PROTEIN TYROSINE KINASE INHIBITOR FOR INDUCING THE DIFFERENTIATION OF MESENCHYMAL STEM CELLS INTO CARDIOGENIC CELLS” (PHARMICELL. CO., LTD., priority 2010, published 2013).
